Read-outs that look alike come from different tables or passages of the source.
What was measured:
[1] = system: HCV-Luc; assay: HCV-Luc infection assay; format: cell-based; settings: for EC50: Hepatitis C virus
[2] = in vitro; settings: human
Description: (§1) EC50 was generated using the HCV-Luc infection assay and IC50 using the ATPLite assay.
(§2) EC50 was generated using the HCV-Luc infection assay and TC50 using the ATPLite assay.
(§3) The cytotoxicity of the compounds was further evaluated in HepG2 cells and primary human hepatocytes.

[3] = system: Huh7.5.1 cells; assay: in vitro; settings: human
Description: as §1, §2, §3

[4] = system: HCV-Luc; assay: HCV-Luc assay of (S)-CCZ combinations, MacSynergy II and CalcuSyn analysis; format: cell-based; settings: for CalcuSyn CI value: (S)-CCZ in combination with the drug named; for antiviral effect of (S)-CCZ with the drug named: combination with (S)-CCZ
Description: Direct-acting antivirals, such as telaprevir and daclatasvir, were recently approved for therapy of hepatitis C. […] Using the MacSynergy II program based on Bliss independence model, three-dimensional surface plots were generated and log volume of synergism was calculated for each combination. The results were also analyzed with the CalcuSyn program, in which the combination indices were calculated.

Compound | CC50 [2] | EC50 ([1]; Table 6, read-out: EC50) | further results
NCCOCCOCCOCCOCCN1CCN(C(c2ccccc2)c2ccc(Cl)cc2)CC1 (racemic) [(CH2CH2O)4CH2CH2NH2 (R,S), 14-(4-((4-Chlorophenyl)(phenyl)methyl)piperazin-1-yl)-3,6,9,12-tetraoxatetradecan-1-amine] | 12.2 ± 0.8 µM | – | EC50 ([1]; Table 3, read-out: EC50): 0.004 ± 0.0022 µM; Selective Index ([1]; Table 3): 3050; Selective Index ([1]; Table 4): 3050; CC50 [3]: 12.2 ± 0.8 µM
OCCOCCN1CCN(C(c2ccccc2)c2ccc(Cl)cc2)CC1 (racemic) [CH2CH2OCH2CH2OH (R,S), 2-(2-(4-((4-Chlorophenyl)(phenyl)methyl)piperazin-1-yl)ethoxy)ethanol] | – | – | Selective Index [1]: 1331; EC50 ([1]; Table 3, read-out: EC50): 0.032 ± 0.011 µM; CC50 ([2]; Huh7.5.1 cells): 42.6 ± 1.8 µM
CC(=O)N1CCC(N(CCc2ccccc2)Cc2ccccc2)CC1 [Acetyl, 1-(4-(Benzyl(phenethyl)amino)piperidin-1-yl)ethanone] | 74.5 µM | > 31.6 µM | –
NC(=O)c1ncn([C@@H]2O[C@H](CO)[C@@H](O)[C@H]2O)n1 [Ribavirin] | – | – | CalcuSyn CI value [4]: 0.630 ± 0.106; antiviral effect of (S)-CCZ with the drug named [4]: highly synergistic
O=C(c1ccccc1)N1CCC(N(CCc2ccccc2)Cc2ccccc2)CC1 [Benzoyl, (4-(Benzyl(phenethyl)amino)piperidin-1-yl)(phenyl)methanone] | 94 µM | 24.8 µM | –
CCC[C@H](NC(=O)[C@@H]1[C@H]2CCC[C@H]2CN1C(=O)[C@@H](NC(=O)[C@@H](NC(=O)c1cnccn1)C1CCCCC1)C(C)(C)C)C(=O)C(=O)NC1CC1 [Telaprevir] | – | – | CalcuSyn CI value [4]: 0.426 ± 0.138
CCN1CCC(N(CCc2ccccc2)Cc2ccccc2)CC1 [Et, N-Benzyl-1-ethyl-N-phenethylpiperidin-4-amine] | 35.3 µM | 0.039 µM | –
CCN1CCN([C@@H](c2ccccc2)c2ccc(Cl)cc2)CC1 [Et (S), (S)-1-((4-Chlorophenyl)(phenyl)methyl)-4-ethylpiperazine] | 40 ± 1.1 µM | – | EC50 ([1]; Table 3, read-out: EC50): 0.02 ± 0.002 µM; CC50 [3]: 40 ± 1.1 µM
COc1ccc(CN2CCC(N(CCc3ccccc3)Cc3ccccc3)CC2)cc1 [4-Methoxybenzyl, N-Benzyl-1-(4-methoxybenzyl)-N-phenethylpiperidin-4-amine] | 27.8 µM | – | EC50 [1]: 4.35 µM
c1ccc(CCN2CCC(N(CCc3ccccc3)Cc3ccccc3)CC2)cc1 [2-Phenylethyl, N-Benzyl-N,1-diphenethylpiperidin-4-amine] | > 100 µM | 16.2 µM | –
FC(F)(F)c1ccc(CN2CCC(N(CCc3ccccc3)Cc3ccccc3)CC2)cc1 [4-Trifluoromethylbenzyl, N-Benzyl-N-phenethyl-1-(4-(trifluoromethyl)benzyl)piperidin-4-amine] | > 100 µM | > 10 µM | –
[2H]C([2H])([2H])N1CCC(N(CCc2ccccc2)Cc2ccccc2)CC1 [CD3—, N-Benzyl-1-methyl(d3)-N-phenethylpiperidin-4-amine] | 100 µM | 7.95 µM | –
CC(C)OC(=O)[C@H](C)N[P@](=O)(OC[C@H]1O[C@@H](n2ccc(=O)[nH]c2=O)[C@](C)(F)[C@@H]1O)Oc1ccccc1 [Sofosbuvir] | – | – | CalcuSyn CI value [4]: 0.362 ± 0.075; antiviral effect of (S)-CCZ with the drug named [4]: highly synergistic
c1ccc(CCN(Cc2ccccc2)C2CCN(C3CCCCC3)CC2)cc1 [Cyclohexyl, N-Benzyl-1-cyclohexyl-N-phenethylpiperidin-4-amine] | 33.8 µM | 1.5 µM | –
CCCN1CCC(N(CCc2ccccc2)Cc2ccccc2)CC1 [Propyl, N-Benzyl-N-phenethyl-1-propylpiperidin-4-amine] | 38.2 µM | 0.37 µM | –
c1ccc(CCN(Cc2ccccc2)C2CCN(Cc3ccc4c(c3)OCCO4)CC2)cc1 [N-Benzyl-1-((2,3-dihydrobenzo[b][1,4]dioxin-6-yl)methyl)-N-phenethylpiperidin-4-amine] | 36.6 µM | 2.78 µM | –

Compound | CC50 [2] | EC50 ([1]; Table 6, read-out: EC50) | further results
COc1ccccc1CN1CCC(N(CCc2ccccc2)Cc2ccccc2)CC1 [2-Methoxybenzyl, N-Benzyl-1-(2-methoxybenzyl)-N-phenethylpiperidin-4-amine] | 15.2 µM | – | EC50 [1]: 0.64 µM
Brc1ccc(CN2CCC(N(CCc3ccccc3)Cc3ccccc3)CC2)cc1 [4-Bromobenzyl, N-Benzyl-1-(4-bromobenzyl)-N-phenethylpiperidin-4-amine] | > 100 µM | 4.33 µM | –
COc1cccc(CN2CCC(N(CCc3ccccc3)Cc3ccccc3)CC2)c1 [3-Methoxybenzyl, N-Benzyl-1-(3-methoxybenzyl)-N-phenethylpiperidin-4-amine] | 45.2 µM | 1.57 µM | –
CC(C)N1CCC(N(CCc2ccccc2)Cc2ccccc2)CC1 [Isopropyl, N-Benzyl-1-isopropyl-N-phenethylpiperidin-4-amine] | 37.6 µM | 0.94 µM | –
COC(=O)c1ccc(CN2CCC(N(CCc3ccccc3)Cc3ccccc3)CC2)cc1 [4-Methoxycarbonylbenzyl, Methyl 4-((4-(benzyl(phenethyl)amino)piperidin-1-yl)methyl)benzoate] | > 100 µM | 14 µM | –
Ic1ccc(CN2CCC(N(CCc3ccccc3)Cc3ccccc3)CC2)cc1 [Compound 4-Iodobenzyl, N-Benzyl-1-(4-iodobenzyl)-N-phenethylpiperidin-4-amine] | > 100 µM | 2.98 µM | –
[2H]C([2H])([2H])CN1CCC(N(CCc2ccccc2)Cc2ccccc2)CC1 [CD3CH2—, N-Benzyl-1-ethyl(2,2,2-d3)-N-phenethylpiperidin-4-amine] | 50.8 µM | 2.37 µM | –
c1ccc(CCN(Cc2ccccc2)C2CCN(c3ccccc3)CC2)cc1 [Phenyl, N-Benzyl-N-phenethyl-1-phenylpiperidin-4-amine] | > 100 µM | – | EC50 [1]: > 31.6 µM
COC(=O)N[C@H](C(=O)N1CCC[C@H]1c1nc(-c2ccc(-c3ccc(-c4c[nH]c([C@@H]5CCCN5C(=O)[C@@H](NC(=O)OC)C(C)C)n4)cc3)cc2)c[nH]1)C(C)C [Daclataivir] | – | – | CalcuSyn CI value [4]: 0.427 ± 0.142
Cc1ccc(CN2CCC(N(CCc3ccccc3)Cc3ccccc3)CC2)cc1 [4-Methylbenzyl, N-Benzyl-1-(4-methylbenzyl)-N-phenethylpiperidin-4-amine] | 40.3 µM | 0.74 µM | –
c1ccc(CCN(Cc2ccccc2)C2CCN(C3CCCC3)CC2)cc1 [Cyclopentyl, N-Benzyl-1-cyclopentyl-N-phenethylpiperidin-4-amine] | 15 µM | 0.48 µM | –
N#Cc1ccc(CN2CCC(N(CCc3ccccc3)Cc3ccccc3)CC2)cc1 [4-Cyanobenzyl, 4-((4-(Benzyl(phenethyl)amino)piperidin-1-yl)methyl)benzonitrile] | 100 µM | 5.86 µM | –
Fc1ccc(CN2CCC(N(CCc3ccccc3)Cc3ccccc3)CC2)cc1 [4-Fluorobenzyl, N-Benzyl-1-(4-fluorobenzyl)-N-phenethylpiperidin-4-amine] | 56.3 µM | – | EC50 [1]: 9.6 µM
IFN-α | – | – | CalcuSyn CI value [4]: 0.609 ± 0.128; antiviral effect of (S)-CCZ with the drug named [4]: highly synergistic
FC(F)(F)CN1CCC(N(CCc2ccccc2)Cc2ccccc2)CC1 [CF3CH2—, N-Benzyl-N-phenethyl-1-(2,2,2-trifluoroethyl)piperidin-4-amine] | > 100 µM | > 31.6 µM | –
CC(C)(C)NC(=O)N[C@H](C(=O)N1C[C@H]2[C@@H]([C@H]1C(=O)NC(CC1CCC1)C(=O)C(N)=O)C2(C)C)C(C)(C)C (stereo partly drawn) [Boceprevir] | – | – | CalcuSyn CI value [4]: 0.691 ± 0.114

— patent publication US20170001988A1, “PIPERIDINE AND PIPERAZINE DERIVATIVES AND THEIR USE IN TREATING VIRAL INFECTIONS AND CANCER” (THE UNITED STATES OF AMERICA, AS REPRESENTED BY THE …, priority 2013, published 2017)
